Experimental data published in publication PMC10525516, “Novel NADPH Oxidase-2 Inhibitors as Potential Anti-Inflammatory and Neuroprotective Agents” (Antioxidants, 2023).

Key:
[1] = Short-term (seven day) in vivo toxicity in mice; design: species or system C57BL/6 mice; conditions: 20 mg/kg i.p. daily for seven days
Method: All animal experiments were performed according to protocols and guidelines approved by the Emory University Animal Care and Use Committee. The in vivo toxicity of TG15-132 was assessed using C57BL/6 mice (cat. no. 027, Charles River Laboratories, Wilmington, MA, USA). Animals were injected daily (i.p.) with saline, vehicle (DMSO 10%, PEG400 30%, water 60%), or 20 mg/kg of TG15-132 in vehicle for seven days, with body weight recorded each day. At the end of treatment, organs were harvested to study organ weight loss, and blood was collected from each mouse via cardiac puncture, and serum was isolated. Serum was analyzed for kidney function using blood urea nitrogen and creatinine, liver function using alanine amino transferase, and tissue damage using lactate dehydrogenase.

Nox2 = target: T1, Nox2 (Homo sapiens, UniProt P04839); experiment: Plate reader hydroethidine (HE + DNA) assay of O2•− production by PMA-activated dHL60 cells; format: cell-based
T1 construct: endogenous in cells
T1 sequence (P04839 2-570 limits assumed): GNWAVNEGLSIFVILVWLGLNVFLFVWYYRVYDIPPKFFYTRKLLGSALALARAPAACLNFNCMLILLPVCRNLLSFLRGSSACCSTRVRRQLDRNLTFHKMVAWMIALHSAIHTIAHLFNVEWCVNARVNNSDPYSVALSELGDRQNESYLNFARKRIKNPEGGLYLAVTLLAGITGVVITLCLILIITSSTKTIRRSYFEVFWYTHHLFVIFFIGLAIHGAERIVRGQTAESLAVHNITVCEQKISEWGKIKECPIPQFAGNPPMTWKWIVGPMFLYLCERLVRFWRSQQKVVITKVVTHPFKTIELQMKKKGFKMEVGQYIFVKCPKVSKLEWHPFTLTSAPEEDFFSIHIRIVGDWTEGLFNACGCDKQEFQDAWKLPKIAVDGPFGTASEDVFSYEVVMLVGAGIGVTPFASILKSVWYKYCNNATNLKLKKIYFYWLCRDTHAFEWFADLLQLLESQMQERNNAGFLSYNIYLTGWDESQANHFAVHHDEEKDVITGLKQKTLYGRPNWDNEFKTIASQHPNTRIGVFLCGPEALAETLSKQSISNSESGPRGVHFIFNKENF
T1 sequence (P13498 2-195 partner limits assumed): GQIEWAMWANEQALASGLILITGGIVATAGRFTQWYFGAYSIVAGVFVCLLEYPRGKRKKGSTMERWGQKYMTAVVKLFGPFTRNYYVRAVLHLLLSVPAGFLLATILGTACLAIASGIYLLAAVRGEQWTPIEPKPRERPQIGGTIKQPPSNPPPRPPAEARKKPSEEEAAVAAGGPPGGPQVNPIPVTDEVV
Method: Human promyelocytic leukemia HL60 cells (Sigma-Aldrich) were grown in RPMI 1640 medium (Gibco, 11875-093, Billings, MT, USA) supplemented with 10% FBS (Omega Scientific (Tarzana, CA, USA)), 100 units/mL penicillin, and 100 µg/mL streptomycin, and were incubated at 37 °C and 5% carbon dioxide (CO2). For differentiation to neutrophil-like cells, HL60 cells were pelleted and resuspended in fresh media containing 1 µM of all trans-retinoic acid and incubated for four to five days. Nox2 activation was achieved by treating differentiated HL60 (dHL60) cells with 1 µM PMA [24]. […]
Plate reader-based analyses of the production of O2^•− and H2O2 by PMA-activated dHL60 cells were performed according to a published protocol with minor modifications. […] Once probes + PMA were added, plates were sealed with sealing film and immediately placed in the pre-warmed plate readers (37 °C). Fluorescence intensities were monitored kinetically from the bottom of the plates every 1.3 min for a period of 2 h using Beckman Coulter (Brea, CA, USA) DTX880 and BMG Labtech (Ortenberg, Germany) FLUOstar Omega plate readers. […] The IC50 values were determined using at least five independent measurements, each consisting of technical quadruplicates per concentration.

In the case of `CN(C)CCCn1c(SCCc2c[nH]c3ccccc23)nc2ccc(F)cc2c1=O` [TG15-132], the “blood urea nitrogen compared with saline-treated mice” value [1] is reported as “significant drop”, the “weights of the lung, liver, or brain” value [1] is reported as “no changes” and the “loss of body weight” value ([1]; marginal and nonsignificant) is reported as 7%. For the same compound, the “serum injury markers (BUN, creatinine, ALT, LDH) vs vehicle” value ([1]; n = 6) was “no differences”, the IC50 (Nox2; HE probe + DNA, plate reader, PMA-activated dHL60 cells, Figure 5C, read-out: IC50, inhibition of O2•− production) was 5 µM and the “PMA-stimulated increase in HE fluorescence intensity” value (Nox2; cell pretreatment, Figure 5B,C) was “dose-dependently inhibited”.
